ChEMBL document CHEMBL1201862, “PubChem BioAssay data set” (2004)
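Cells were grown in 96-well plates and exposed to each compound for 48 hours at five concentrations; endpoints were interpolated linearly between bracketing concentrations, or set to the highest concentration if not reached. Abbreviation: GI50, concentration required for 50% inhibition of growth.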 The source made the active and inactive calls. Cut-off read from the data, not from the text of the source: active = GI50 up to about 1.1 µM and inactive = higher.

Tests used:
Assay in all cases: DTP human tumour cell line panel, 48 h
T47D = tested on: T47D
MDA-N = tested on: MDA-N
NCI/ADR-RES = tested on: NCI/ADR-RES
BT-549 = tested on: BT-549
MCF7 = tested on: MCF7
MDA-MB-435 = tested on: MDA-MB-435

| SMILES | GI50 (T47D) | GI50 (MDA-N) | GI50 (NCI/ADR-RES) | GI50 (BT-549) | GI50 (MCF7) | GI50 (MDA-MB-435) |
| --- | --- | --- | --- | --- | --- | --- |
| NC(=O)C(c1ccccc1)N1OC2C(=O)N(c3cccc4ccccc34)C(=O)C2C1c1c2ccccc2c(Cl)c2ccccc12 (centres undefined) | 8.93 µM (inactive) | 2.38 µM (inactive) | 5.15 µM (inactive) | 9.42 µM (inactive) | 2.85 µM (inactive) | 6.92 µM (inactive) |
| O=C(NCCN(CCNC(=O)c1cccc(O)c1O)CCNC(=O)c1cccc(O)c1O)c1cccc(O)c1O [TRENCAM] | 9.73 µM (inactive) | 9.31 µM (inactive) | 49.4 µM (inactive) | 23.2 µM (inactive) | 9.55 µM (inactive) | 21.7 µM (inactive) |
| CCc1nnc(CC)n1-n1c(Cc2ccccc2)n[nH]c1=O |  | > 100 µM (inactive) | > 100 µM (inactive) | > 100 µM (inactive) | > 100 µM (inactive) | > 100 µM (inactive) |
| NC(CCC(=O)O)C(=O)NC(Cc1ccc(N(CCCl)CCCl)cc1)C(=O)O (centres undefined) | > 100 µM (inactive) | > 100 µM (inactive) | > 100 µM (inactive) | > 100 µM (inactive) | > 100 µM (inactive) | > 100 µM (inactive) |
| CNC(=O)c1nnn(Cc2ccccc2)c1S | > 100 µM (inactive) | > 100 µM (inactive) | > 100 µM (inactive) | > 100 µM (inactive) | > 100 µM (inactive) | > 100 µM (inactive) |
| CC1CCC2C(C)C(=O)OC2C2(C)C(=O)C=CC12 (centres undefined) | > 10 µM (inactive) | 6.14 µM (inactive) | > 10 µM (inactive) |  | 8.79 µM (inactive) | > 10 µM (inactive) |
| Nc1nc(Cl)cc(NCC2(CO)CCCCC2)n1 | 38.5 µM (inactive) | > 100 µM (inactive) | 39.7 µM (inactive) | > 100 µM (inactive) | 97.9 µM (inactive) | > 100 µM (inactive) |
| C=CCSc1nc2ccccc2c(=O)n1Cc1ccco1 | 29.1 µM (inactive) | > 100 µM (inactive) | 39.4 µM (inactive) | > 100 µM (inactive) | 52.2 µM (inactive) | > 100 µM (inactive) |
| CN(C)C(=O)OC(Cn1cncn1)(Cn1cncn1)c1ccc(Cl)cc1Cl | > 100 µM (inactive) |  | > 100 µM (inactive) | > 100 µM (inactive) | > 100 µM (inactive) | > 100 µM (inactive) |
| Oc1nc2nnc(COc3ccc(Cl)cc3Cl)n2nc1Cc1ccccc1 | 37.8 µM (inactive) | > 100 µM (inactive) | 43.1 µM (inactive) | > 100 µM (inactive) | > 100 µM (inactive) | > 100 µM (inactive) |
| COc1ccc(C23OCC(Cc4cc(OC)c(OC)cc42)C3CO)cc1OC (centres undefined) | > 100 µM (inactive) |  | > 100 µM (inactive) | > 100 µM (inactive) | > 100 µM (inactive) | > 100 µM (inactive) |
| COc1ccc2ccccc2c1C1NC(=O)c2ccccc2N1 (centres undefined) | 12.1 µM (inactive) | 0.173 µM (active) | 0.507 µM (active) | > 100 µM (inactive) | 0.78 µM (active) | 0.234 µM (active) |
| CCCC1NC(=O)C(CC(C)C)NC(=O)c2cccc(n2)C(=O)NC(CC(C)C)C(=O)NC(CCC)C(=O)NC(C(=O)OC)CCCCNC1=O (centres undefined) | 55 µM (inactive) | 36.9 µM (inactive) | > 100 µM (inactive) | 26.4 µM (inactive) | 25.9 µM (inactive) | 35.4 µM (inactive) |
| C(=N\c1ccc(-c2nc3ccccc3[nH]2)cc1)/c1ccc[nH]1 | 40.3 µM (inactive) | 34.2 µM (inactive) | > 100 µM (inactive) | > 100 µM (inactive) | 25.7 µM (inactive) | 41.8 µM (inactive) |
| COc1cccc(C=C2N=C(C)N(n3c(-c4ccccc4)nc4ccccc4c3=O)C2=O)c1 | > 100 µM (inactive) | > 100 µM (inactive) |  | > 100 µM (inactive) | 83.4 µM (inactive) | > 100 µM (inactive) |
| NS(=O)(=O)c1ccc(/N=N/c2cc3ccccc3c(C(=O)O)c2O)cc1 | > 54.1 µM (inactive) | > 100 µM (inactive) | > 64.1 µM (inactive) | 99.1 µM (inactive) | 2.68 µM (inactive) | > 55.8 µM (inactive) |
| Cc1cn(CC2=NCC(C)(C)N2)c(=O)[nH]c1=O | > 100 µM (inactive) | > 100 µM (inactive) | > 100 µM (inactive) | > 100 µM (inactive) | > 100 µM (inactive) |  |
| CC(C)/C(Cl)=N/OC(=O)Nc1ccc(OC(F)(F)F)cc1 | 8.55 µM (inactive) | 13.4 µM (inactive) | 17 µM (inactive) | 16.3 µM (inactive) | 13.5 µM (inactive) | 12.6 µM (inactive) |
| CC(C)=CCc1cc2c(cc1O)OC[C@H]1c3cc4c(cc3O[C@@H]21)OCO4 | 34.4 µM (inactive) | 20.6 µM (inactive) | 29.8 µM (inactive) | 23.4 µM (inactive) | 25.3 µM (inactive) | 32.6 µM (inactive) |
| CCOc1cc(C2SCC(=O)N2c2nc3cc4sc(N5C(=O)CSC5c5ccc(O)c(OCC)c5)nc4cc3s2)ccc1O (centres undefined) | 40.2 µM (inactive) | 30.5 µM (inactive) | 8.2 µM (inactive) | 9.59 µM (inactive) | 9.86 µM (inactive) | 29.9 µM (inactive) |
